# Measured values as given in article PMC10937676, “Targeting the NTSR2/TrkB oncogenic pathway in chronic lymphocytic leukemia” (Scientific Reports, 2024).
# Legend:
# [1] = tested on: SRC; experiment: Immunoblot, relative phosphorylation level of SRC in CLL-B cells; assay type: cell-based, human; details: CLL-B cells from 10 patients, overnight, 10 µM
# Procedure: (§1) Figure 5 The peptide inhibits kinase phosphorylation. CLL-B cells from 10 patients were incubated overnight, with or without 10 µM of TAT-Pep. Whole cell lysates were then prepared, and 10 µg of proteins were immunoblotted to assess the following parameters. (A) Relative phosphorylation level of SRC. (B) Relative phosphorylation level of AKT. (C) Relative phosphorylation level of LYN. (D) Relative phosphorylation level of BTK. (E) Relative phosphorylation level of all tyrosine-phosphorylated proteins.
# (§2) Whole cell lysate proteins were extracted using RIPA buffer (Sigma-Aldrich) and sonication (VibraCell™). Plasma membrane proteins were recovered by using the Plasma Membrane Protein Extraction Kit (Abcam) according to the manufacturer’s instructions. A list of the antibodies used for immunoblotting is available in Supplementary Table 2. Bands were quantitatively assessed by densitometry using Fiji software. To evaluate the level of interaction of NTSR2 and TRKB we normalized the density of the TRKB bands by the density of the NTSR2 bands to obtain the relative amount of TRKB co-precipitated through NTSR2.
# [2] = tested on: AKT; experiment: Immunoblot, relative phosphorylation level of AKT in CLL-B cells; assay type: cell-based, human; details: CLL-B cells from 10 patients, overnight, 10 µM
# Procedure: as §1, §2
# [3] = tested on: BCL-2; experiment: Immunoblot, relative level of anti-apoptotic protein BCL-2 in CLL-B cells; assay type: cell-based, human; details: CLL-B cells from 10 patients, overnight, 10 µM
# From the text: (§3) Concerning anti-apoptotic protein expression, a decrease in anti-apoptotic proteins BCL-2; BCL-XL and MCL-1 was observed after TAT-Pep treatment of CLL-B cells, possibly as a consequence of the SRC kinase inactivation (Fig. 6A–C). To unveil whether the regulation mechanism behind the observed modifications was transcriptional or post-transcriptional, we evaluated the mRNA levels of all three anti-apoptotic proteins following peptide treatment. […] To further underline that the induction of cell death following TAT-Pep treatment involved apoptosis regulation pathways, we used B cells from six CLL patients and stained them with Annexin V in both TAT-Pep treated and untreated conditions. […]
# (§4) Figure 6 The peptide lowers anti-apoptotic proteins levels. […] CLL-B cells from 12 patients were incubated overnight, with or without 10 µM of TAT-Pep, subsequently RNA was extracted from cell lysates and mRNA levels of BCL-2 (D); BCL-XL (E) and MCL-1 (F) were evaluated using RTqPCR; 18S was used as a housekeeping gene. (G) Increased concentrations (0 to 30 µM) of TAT-Pep were incubated with 20,000 CLL-B, and the number of Annexin V-positive cells was measured using the Incucyte live-cell imaging device. Fluorescence was monitored for 48 h. […] The ‘Green Object Count/Phase Object Count’ ratio was determined using the Incucyte analysis software to obtain the percentage of apoptotic cells. […]
# [4] = tested on: BCL-XL; experiment: Immunoblot, relative level of anti-apoptotic protein BCL-XL in CLL-B cells; assay type: cell-based, human; details: CLL-B cells from 10 patients, overnight, 10 µM
# From the text: as §3, §4
# [5] = tested on: MCL-1; experiment: Immunoblot, relative level of anti-apoptotic protein MCL-1 in CLL-B cells; assay type: cell-based, human; details: CLL-B cells from 10 patients, overnight, 10 µM
# From the text: as §3, §4
# [6] = tested on: BCL-2 mRNA; experiment: RTqPCR, mRNA level of BCL-2 in CLL-B cells; assay type: cell-based, human; details: CLL-B cells from 12 patients, overnight, 10 µM, 18S housekeeping gene
# From the text: as §3, §4
# [7] = target: T1, NTSR2/TRKB interaction (Homo sapiens, UniProt Q16620); experiment: NTSR2-AviTag pull-down, inhibition of the NTSR2/TRKB interaction in transfected HEK293T cells; assay type: cell-based; set-up: host or cells: HEK293T
# T1 sequence (Q16620 32-822): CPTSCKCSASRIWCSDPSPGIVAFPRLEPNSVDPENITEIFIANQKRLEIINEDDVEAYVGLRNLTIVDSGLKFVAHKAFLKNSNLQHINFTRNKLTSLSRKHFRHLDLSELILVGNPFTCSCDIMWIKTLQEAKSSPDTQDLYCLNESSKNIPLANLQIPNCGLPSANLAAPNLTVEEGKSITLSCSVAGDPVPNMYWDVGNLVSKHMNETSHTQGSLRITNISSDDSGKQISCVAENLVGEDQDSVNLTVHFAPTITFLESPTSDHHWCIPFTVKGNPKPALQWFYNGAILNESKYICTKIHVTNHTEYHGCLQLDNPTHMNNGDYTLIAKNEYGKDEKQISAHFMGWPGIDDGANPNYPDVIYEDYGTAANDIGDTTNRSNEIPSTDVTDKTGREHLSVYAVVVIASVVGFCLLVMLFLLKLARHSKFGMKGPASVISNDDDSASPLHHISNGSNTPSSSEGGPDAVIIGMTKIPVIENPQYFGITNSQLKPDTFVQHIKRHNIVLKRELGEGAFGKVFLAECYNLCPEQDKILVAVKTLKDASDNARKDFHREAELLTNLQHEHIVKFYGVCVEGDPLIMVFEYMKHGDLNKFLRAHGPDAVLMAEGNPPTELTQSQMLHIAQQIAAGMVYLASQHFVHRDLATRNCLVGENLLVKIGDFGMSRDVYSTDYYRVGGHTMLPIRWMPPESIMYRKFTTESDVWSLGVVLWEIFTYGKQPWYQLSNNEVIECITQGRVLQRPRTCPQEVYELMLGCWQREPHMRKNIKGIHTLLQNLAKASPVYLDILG
# From the text: (§5) Nuclei were stained with DAPI (blue). […] (C) Representative immunoblot of 3 independent experiments. […] Nuclei were stained with DAPI (blue). Magnification × 40.
# The amount of co-immunoprecipitated TRKB protein was detected by immunoblot (Fig. 4C,D). […] This is associated to the low penetration of the peptide in the cells.
# Vectors used were constructed by Vector Builder. The vector builder IDs are VB201022-1029qpx (BirA); VB201022-1027yza (TRKB-NTSR2) and VB201022-1012yjb (TRKB-NTSR2-AviTag™). 500 000 HEK293T cells were seeded and transfected the following day with 3 µg of plasmid using jetPEI (Polyplus Transfection). They were then treated with 40 µM biotin and with or without […] of BDNF (ABclonal).
# Proteins were extracted using RIPA buffer (Sigma-Aldrich) and sonication (VibraCell™). They were then incubated with 30 μL of streptavidin-functionalized magnetic beads (Invitrogen) for 2 h at 4 °C under rotation. For western blot analysis, the magnetic beads were washed 4 times with cold PBS and the fixed proteins were eluted in 4 × Laemmli buffer supplemented with 10% β-mercaptoethanol and denatured at 95 °C for 5 min.
# Whole cell lysate proteins were extracted using RIPA buffer (Sigma-Aldrich) and sonication (VibraCell™). […] Bands were quantitatively assessed by densitometry using Fiji software. […]
# [8] = target: T1, NTSR2/TRKB interaction; experiment: Proximity ligation assay (PLA) for NTSR2 and TRKB in CLL-B cells; assay type: cell-based; set-up: endogenous in cells; host or cells: primary CLL-B cells from three CLL patients; details: CLL-B cells from three CLL patients, 10 µM overnight; compared with TAT alone or untreated; spots counted in 50 cells
# Procedure: as §5
# In a second approach, we investigated the inhibition of the NTSR2/TRKB interaction in CLL-B cells from three CLL patients using PLA on NTSR2 and TRKB. The leukemic B cells were either treated with the TAT-Pep peptide, TAT alone, or left untreated, and then the proximity ligation assay was performed (Fig. 4E,F).
# Cells were fixed with methanol at − 20 °C for 10 min and then the Duolink kit (Sigma) was used to perform the PLA according to the manufacturer’s instructions. Before observation, cells were mounted on glass slides with DAPI-containing mounting medium and results were observed by confocal microscopy (LSM880, Zeiss) and analyzed using the Fiji software (ImageJ).
sequence,measurement,setting,value
GRKKRRQRRRPPQNAVSSSFRKLFLEAVSSLCGEHHPMKRLPPKPQSPTLMDTASGFGDPPETRT [TAT-Pep],amount of phosphorylated SRC (in words),[1],significant decrease
same,AKT phosphorylation (in words),[2],did not observe any variation
same,level of anti-apoptotic protein BCL-2 (in words),[3],decrease
same,level of anti-apoptotic protein BCL-XL (in words),[4],decrease
same,level of anti-apoptotic protein MCL-1 (in words),[5],decrease
same,mRNA level of BCL-2 (in words),[6],significantly lowered expression
same,"amount of co-immunoprecipitated TRKB protein (TRKB/NTSR2 ratio, in words)","[7]; transfected HEK293T cells incubated overnight with 10 µM peptide, streptavidin pull-down, immunoblot densitometry, 3 independent experiments",significant decrease
same,effect of BDNF addition on the inhibited NTSR2/TRKB interaction (in words),"[7]; transfected HEK293T cells, 10 µM peptide overnight, BDNF in the culture medium",did not restore the interaction
same,"PLA red fluorescence spots (proximity of NTSR2 and TRKB), in words",[8],dramatically reduced
